Columns and labels:
[1] = molecular target: T1, Lck SH2 domain (Homo sapiens, UniProt P06239); experiment: Competition binding assay of radioactive Lck SH2 domain to pYEEI beads; conditions: 1.0 μM ligand plus FKBP12 2.0 μM
T1 construct: The Fyn, Lck and PLC SH2 domains were expressed in bacteria as GST fusion proteins; GST (cleaved yes); made in house; host or cells: bacteria
Text: The pYEEI peptide was coupled to Affi-Gel 10 beads (Biorad) via its amino-group. The Fyn, Lck and PLC SH2 domains were expressed in bacteria as GST fusion proteins. The linker between the GST protein and the SH2 domain contained a thrombin cleavage site and a protein kinase A (PKA) phosphorylation site. The fusion protein on glutathione beads was radioactively labeled at the PKA phosphorylation site using PKA (Sigma). After extensive washing of the beads, the radioactive SH2 domain was released by cleavage with thrombin (Sigma). […] The beads were resuspended in […] PBS and the radioactivity was counted in a liquid scintillation counter after addition of 3 ml scintillation fluid. The radioactivity remaining in the 100 L supernatant was counted in the same way. It was determined that under the conditions described 65% Fyn, 25% PLC and 15%Lck SH2 domain were bound to the beads. […]
To test if the presence of FKBP12 affects the affinity of FKpYEEI for other SH2 domains aside from the PLC SH2 domain, FKpYEEI and FKBP12 were added to binding reactions containing the Fyn, Lck or PLC SH2 domains (FIG. 10). […] The binding reactions were rotated at room temperature for 2 hours, centrifuged and analysed as described above. […]

[2] = molecular target: T2, FKBP52 (Homo sapiens, UniProt Q02790); experiment: Binding constants (Kd) for FKBP52, isothermal titration calorimetry
T2 construct: His6 (N); made in house
T2 sequence (Q02790 1-459): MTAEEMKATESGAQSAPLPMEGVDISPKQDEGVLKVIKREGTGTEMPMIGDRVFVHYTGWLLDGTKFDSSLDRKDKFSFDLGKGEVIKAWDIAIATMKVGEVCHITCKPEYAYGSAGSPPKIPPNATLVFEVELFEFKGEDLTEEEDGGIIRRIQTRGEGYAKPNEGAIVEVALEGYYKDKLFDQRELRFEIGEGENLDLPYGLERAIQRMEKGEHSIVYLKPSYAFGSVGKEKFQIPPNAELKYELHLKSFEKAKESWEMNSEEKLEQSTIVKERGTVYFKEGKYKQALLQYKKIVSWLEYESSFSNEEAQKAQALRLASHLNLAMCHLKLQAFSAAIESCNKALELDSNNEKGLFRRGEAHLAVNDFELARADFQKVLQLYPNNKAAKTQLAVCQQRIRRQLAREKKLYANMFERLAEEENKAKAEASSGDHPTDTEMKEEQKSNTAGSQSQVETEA
Text: SLF was synthesized according to the procedures of Holt et al. [J. Am. Chem. Soc. 1993, 115, 9925]. SLF was coupled to the N-terminus of the resin-bound protected pYEEI peptide using PyBOP. The heterodimeric SLFpYEEI was deprotected and cleaved from the Novasyn TGT resin (Calbiochem-Novabiochem, San Diego, Ca.) using 25% trifluoroacetic acid and 2.5% triisopropyl silane in methylene chloride and the desired product was isolated using reverse phase HPLC. C. […] Recombinant FKBP12 was expressed as a GST fusion protein and bound to glutathione beads (Pharmacia). Using thrombin (Sigma) to cleave the GST-FKBP12 fusion protein at a thrombin cleavage site in the linker between GST and FKBP12, recombinant FKBP12 could be released from the glutathione beads where GST remained bound. FKBP52 was expressed with a tag of six histidine residues at its N-terminus (pET28c expression vector, Novagen). The recombinant protein was bound via the histidine tag to Ni^2+ NTA agarose beads (Qiagen), washed extensively and eluted with imidazole. […]
SLFpYEEI and FKpYEEI are bifunctional molecules that can bind FKBP12 and FKBP52 as well as the Fyn SH2 domain (FIG. 2). The binding constants (Kd values) of the bifunctional molecules for the three proteins were measured using isothermal titration calorimetry (ITC) (Table 1).

T1 sequence (P06239 127-224 limits assumed): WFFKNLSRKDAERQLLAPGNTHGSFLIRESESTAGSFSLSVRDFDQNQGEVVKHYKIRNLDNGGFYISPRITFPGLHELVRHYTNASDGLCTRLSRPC

CC[C@H](C)[C@H](NC(=O)[C@H](CCC(=O)O)NC(=O)[C@H](CCC(=O)O)NC(=O)[C@H](Cc1ccc(OP(=O)(O)O)cc1)NC(=O)COc1cccc([C@@H](CCc2ccc(OC)c(OC)c2)OC(=O)[C@@H]2CCCCN2C(=O)C(=O)C(C)(C)CC)c1)C(=O)O [SLFpYEEI] was tested, and the “Effect of FKBP12 on affinity for the Lck SH2 domain” value [1] was “reduced binding”.

With CC[C@H](C)[C@H](NC(=O)[C@H](CCC(=O)O)NC(=O)[C@H](CCC(=O)O)NC(=O)[C@H](Cc1ccc(OP(=O)(O)O)cc1)NC(=O)OCC[C@@H]1/C=C(\C)C[C@H](C)C[C@H](OC)[C@H]2O[C@@](O)(C(=O)C(=O)N3CCCC[C@H]3C(=O)O[C@H](/C(C)=C/[C@@H]3CC[C@@H](O)[C@H](OC)C3)[C@H](C)[C@@H](O)CC1=O)[C@H](C)C[C@@H]2OC)C(=O)O [FKpYEEI] the Kd [2] was 150 nM and the “Effect of FKBP12 on affinity for the Lck SH2 domain” value [1] was “does not affect the affinity”.

Reference: patent US6921531B2, “Administering bifunctional molecules containing a drug moiety and presenter protein ligand for therapy” (The Board of Trustees of the Leland Stanford Junior …, priority 1998, dated 2005)
